Target: T1, His-hSHIP1 enzyme (Homo sapiens, UniProt Q92835)
T1 construct: His
T1 sequence (Q92835 1-1189): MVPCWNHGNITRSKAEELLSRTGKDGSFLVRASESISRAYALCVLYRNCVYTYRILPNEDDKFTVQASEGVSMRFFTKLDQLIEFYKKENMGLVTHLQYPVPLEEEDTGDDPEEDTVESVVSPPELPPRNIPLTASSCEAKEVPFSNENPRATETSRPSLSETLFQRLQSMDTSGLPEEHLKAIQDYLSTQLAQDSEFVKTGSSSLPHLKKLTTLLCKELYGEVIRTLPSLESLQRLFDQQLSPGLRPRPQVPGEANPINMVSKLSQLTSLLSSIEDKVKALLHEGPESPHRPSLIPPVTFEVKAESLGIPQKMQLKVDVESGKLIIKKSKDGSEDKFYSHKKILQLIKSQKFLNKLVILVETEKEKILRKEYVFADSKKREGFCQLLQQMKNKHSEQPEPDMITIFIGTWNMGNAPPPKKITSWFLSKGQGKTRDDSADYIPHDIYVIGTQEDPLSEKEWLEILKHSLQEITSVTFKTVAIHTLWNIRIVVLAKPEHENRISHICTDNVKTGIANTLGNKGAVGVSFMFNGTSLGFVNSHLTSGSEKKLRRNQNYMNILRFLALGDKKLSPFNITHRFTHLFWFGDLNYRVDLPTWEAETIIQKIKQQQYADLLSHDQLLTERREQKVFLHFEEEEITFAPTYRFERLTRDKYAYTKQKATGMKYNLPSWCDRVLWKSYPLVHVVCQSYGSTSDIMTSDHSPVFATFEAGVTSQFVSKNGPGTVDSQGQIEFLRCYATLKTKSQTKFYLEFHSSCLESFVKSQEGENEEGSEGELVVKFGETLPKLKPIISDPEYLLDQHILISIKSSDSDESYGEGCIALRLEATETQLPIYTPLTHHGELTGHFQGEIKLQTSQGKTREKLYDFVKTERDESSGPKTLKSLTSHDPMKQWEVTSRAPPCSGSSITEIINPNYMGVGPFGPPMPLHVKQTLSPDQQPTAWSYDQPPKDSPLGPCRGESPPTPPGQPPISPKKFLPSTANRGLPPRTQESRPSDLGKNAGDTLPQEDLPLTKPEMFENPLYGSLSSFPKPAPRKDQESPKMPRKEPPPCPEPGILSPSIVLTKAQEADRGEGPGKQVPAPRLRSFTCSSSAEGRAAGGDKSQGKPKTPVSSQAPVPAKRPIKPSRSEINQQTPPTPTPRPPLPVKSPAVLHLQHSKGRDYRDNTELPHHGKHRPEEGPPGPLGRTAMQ
Assay: His-hSHIP1 activity, approach 1 (phosphate release from IP4, Biomol Green)
Type: biochemical
Details: activation of His-hSHIP1; IP4 50 μM; test compound 0-300 μM; no asterisk in Table 2
Experimental: (§1) Test compounds are dissolved in 95% ethanol to form stock solutions. Before screening, the stock solutions are diluted with Phosphatase Assay Buffer (20 mM Tris-HCL, 10 mM MgCl2 pH 7.5, 0.02% Tween 20) to form working assay solutions that contain 10% ethanol. The assay is carried out on 96-well microtiter plates using a modified procedure of that reported by Ong et al., Blood 110, 1942-1949, 2007 and Yang et al., Org Lett 7, 1073-1076, 2005, both of which references are incorporated herein by reference in their entirety.
Data were generated by one of two variant methods. Test compounds are screened by one of two approaches described as follows. In the first approach, each reaction contains 5 μL of His-hSHIP1 enzyme (5-20 ng), 10 μL of the substrate, 1,3,4,5-inositol tetrakisphosphate (IP4; 50 μM final), 5 μL of Phosphatase Assay Buffer, and 5 µL of test compound at various concentrations in 10% ethanol (0-300 μM final). Control blanks are also prepared by replacing His-hSHIP1 enzyme, IP4, or test compounds with Phosphatase Assay Buffer. After adding the reaction components in a 96-well microtiter plate on ice, the reaction is mixed by briefly shaking the plate vigorously. The reaction is then incubated at 37° C. for 15 min with gentle shaking followed by addition of 100 μL of Biomol Green Reagent (BIOMOL, Pa., USA) to terminate the reaction. The free phosphate released from IP4 by His-hSHIP1 binds to the Biomol Green Reagent, which turns the dye to green color. After incubating the mixture for 20 min at room temperature for color development, the absorbance is read with SpectraMax Plus 96-well plate reader (Molecular Devices, Sunnyvale, Calif., USA) at a wavelength of 650 nm.

Row | Scoring, Approach 1 (% increase relative to background) | SMILES
1 | +++ (x ≥65) | COc1cc(C)cc(C(=O)[C@H]2[C@H](C)C(NCCCN)C[C@H]3C(C)(C)CCC[C@]23C)c1.Cl.Cl (stereo partly drawn) [Compound No. 11, (3S,4S,4aS,8aS)-N-(3-aminopropyl)-4-[(3-methoxy-5-methylphenyl)carbonyl]-3,4a,8,8-tetramethyl-decahydronaphthalen-2-amine dihydrochloride]
2 | ++ (50 ≤ x < 65) | COc1cc(OC)cc(C(=O)[C@@H]2[C@@]3(C)CCCC(C)(C)[C@@H]3CC[C@@]2(C)O)c1 [Compound No. 50, (1R,2R,4aS,8aS)-1-[(3,5-dimethoxyphenyl)carbonyl]-2,5,5,8a-tetramethyl-decahydronaphthalen-2-ol]
3 | ++ (50 ≤ x < 65) | CC1=CC[C@H]2C(C)(C)CCC[C@]2(C)C1C(=O)c1cc(C)cc(O)c1 (stereo partly drawn) [Compound No. 4, 3-{[(4aS,8aS)-2,5,5,8a-tetramethyl-1,4,4a,5,6,7,8,8a-octahydronaphthalen-1-yl]carbonyl}-5-methylphenol]

Target: T1, His-hSHIP1 enzyme
Assay: His-hSHIP1 activity, approach 2 (ratio of initial velocities IP4 25/IP4 250)
Type: biochemical
Set-up: key: +++: higher than reference or reference - 15%; ++: reference - 16% to reference - 30%; +: reference - 31% or lower
Details: ratio of initial velocities IP4 25/IP4 250 versus reference SHIP1 activator; asterisk in Table 2
Experimental: as §1
In the second approach, a master mix is prepared that contains […] (0.4-1.6 ng/μL final), 25 μL of the substrate, IP4 (25 or 250 μM final), and 50 μL of test compound in 3.3% ethanol ([…]). Control blanks are also prepared by replacing His-hSHIP1 enzyme, IP4, or test compounds with Phosphate Assay Buffer. […] Each reaction component is preincubated at 37° C. for 30 min before adding to a 96-well microtiter plate. The master mix is then incubated at 37° C. At time 0, 20, 25 and 30 min, 25 μL of the master mix is removed and transferred to a new 96-well microtiter plate, to which 100 μL of Biomol Green Reagent is added to stop the reaction. After incubating the mixture for 20 min at room temperature for color development, the absorbance is read with SpectraMax Plus 96-well plate reader at a wavelength of 650 nm. Phosphate released is plotted against time to calculate the initial velocities (i.e., slope of the graph) at each IP4 concentration. The initial velocities are baseline corrected and the ratio of initial velocities (IP425/IP4250) is calculated and used to rate the test compounds.

Row | Scoring, Approach 2 (Initial velocity Ratio) | SMILES
4 | ++ | C[C@@H]1[C@H](NCc2cnc[nH]2)C[C@H]2C(C)(C)CCC[C@]2(C)[C@H]1C(=O)c1cc(O)cc(O)c1 [Compound No. 119, 5-{[(1S,2S,3R,4aS,8aS)-3-[(1H-imidazol-5-ylmethyl)amino]-2,5,5,8a-tetramethyl-decahydronaphthalen-1-yl]carbonyl}benzene-1,3-diol]
5 | ++ | CC(=O)N[C@@H]1C[C@H]2C(C)(C)CCC[C@]2(C)[C@@H](C(=O)c2cc(C)cc(O)c2)[C@@H]1C [Compound No. 139, N-[(2R,3S,4S,4aS,8aS)-4-[(3-hydroxy-5-methylphenyl)carbonyl]-3,4a,8,8-tetramethyl-decahydronaphthalen-2-yl]acetamide]
6 | ++ | Cc1cc(O)cc(C(=O)[C@H]2[C@H](C)[C@H](NC(=N)N)C[C@H]3C(C)(C)CCC[C@]23C)c1 [Compound No. 175, 1-[(2R,3S,4S,4aS,8aS)-4-[(3-hydroxy-5-methylphenyl)carbonyl]-3,4a,8,8-tetramethyl-decahydronaphthalen-2-yl]guanidine]
7 | +++ | C[C@@H]1[C@H](NC(=O)CNS(=O)(=O)c2ccccc2C(=O)O)C[C@H]2C(C)(C)CCC[C@]2(C)[C@H]1C(=O)c1cc(O)cc(O)c1 [Compound No. 181, 2-[({[(2R,3S,4S,4aS,8aS)-4-[(3,5-dihydroxyphenyl)carbonyl]-3,4a,8,8-tetramethyl-decahydronaphthalen-2-yl]carbamoyl}methyl)sulfamoyl]benzoic acid]
8 | + | C[C@@H]1[C@H](NS(C)(=O)=O)C[C@H]2C(C)(C)CCC[C@]2(C)[C@H]1C(=O)c1cc(O)cc(O)c1 [Compound No. 179, N-[(2R,3S,4S,4aS,8aS)-4-[(3,5-dihydroxyphenyl)carbonyl]-3,4a,8,8-tetramethyl-decahydronaphthalen-2-yl]methanesulfonamide]
9 | +++ | C[C@@H]1[C@H](NC(=N)N)C[C@H]2C(C)(C)CCC[C@]2(C)[C@H]1C(=O)c1cc(O)cc(O)c1 [Compound No. 178, 1-[(2R,3S,4S,4aS,8aS)-4-[(3,5-dihydroxyphenyl)carbonyl]-3,4a,8,8-tetramethyl-decahydronaphthalen-2-yl]guanidine]
10 | ++ | Cc1cc(O)cc(C(=O)[C@H]2[C@H](C)[C@H](NC(=O)Nc3cccnc3)C[C@H]3C(C)(C)CCC[C@]23C)c1 [Compound No. 138, 3-[(2R,3S,4S,4aS,8aS)-4-[(3-hydroxy-5-methylphenyl)carbonyl]-3,4a,8,8-tetramethyl-decahydronaphthalen-2-yl]-1-(pyridin-3-yl)urea]
11 | +++ | C[C@@H]1[C@H](NC(=O)Nc2cccnc2)C[C@H]2C(C)(C)CCC[C@]2(C)[C@H]1C(=O)c1cc(O)cc(O)c1 [Compound No. 118, 3-[(2R,3S,4S,4aS,8aS)-4-[(3,5-dihydroxyphenyl)carbonyl]-3,4a,8,8-tetramethyl-decahydronaphthalen-2-yl]-1-(pyridin-3-yl)urea]
12 | ++ | Cc1cc(O)cc(C(=O)[C@H]2[C@H](C)[C@H](N)C[C@H]3C(C)(C)CCC[C@]23C)c1 [Compound No. 136, 3-{[(1S,2S,3R,4aS,8aS)-3-amino-2,5,5,8a-tetramethyl-decahydronaphthalen-1-yl]carbonyl}-5-methylphenol]

Second part, the compound before the results:

Row | SMILES | Scoring, Approach 2 (Initial velocity Ratio)
13 | COc1cc(OC)cc(S(=O)(=O)C[C@H]2C(C)C(O)C[C@H]3C(C)(C)CCC[C@]23C)c1 (stereo partly drawn) [Compound No. 173, (4S,4aS,8aS)-4-{[(3,5-dimethoxybenzene)sulfonyl]methyl}-3,4a,8,8-tetramethyl-decahydronaphthalen-2-ol] | +++
14 | COc1cc(OC)cc(C(=O)C2=C(C)[C@H](O)C[C@H]3C(C)(C)CCC[C@]23C)c1 [Compound No. 142, (2R,4aS,8aS)-4-[(3,5-dimethoxyphenyl)carbonyl]-3,4a,8,8-tetramethyl-1,2,4a,5,6,7,8,8a-octahydronaphthalen-2-ol] | ++
15 | C[C@H]1CC[C@H]2C(C)(C)CCC[C@]2(C)[C@H]1CC(=O)Nc1cc(O)cc(O)c1 [Compound No. 149, 2-[(1S,2S,4aS,8aR)-2,5,5,8a-tetramethyl-decahydronaphthalen-1-yl]-N-(3,5-dihydroxyphenyl)acetamide] | ++
16 | CC1(C)CCC[C@]2(C)[C@@H](Cc3cc(O)cc(O)c3)[C@@H](C(=O)O)CC[C@@H]12 [Compound No. 157, (1S,2S,4aS,8aR)-1-[(3,5-dihydroxyphenyl)methyl]-5,5,8a-trimethyl-decahydronaphthalene-2-carboxylic acid] | ++
17 | COc1cc(OC)cc(C(O)[C@@H]2[C@@]3(C)CCCC(C)(C)[C@@H]3CC[C@@]2(C)O)c1 (stereo partly drawn) [Compound No. 49, (1S,2R,4aS,8aS)-1-[(3,5-dimethoxyphenyl)(hydroxy)methyl]-2,5,5,8a-tetramethyl-decahydronaphthalen-2-ol] | +++
